Test [1] relates to A2780 cells. Briefly: Deoxy-glucose uptake assay in A2780 cells (14C 2-deoxy-D-glucose transport). The class given is cell-based. To be noted: Homo sapiens, 20 min; inhibition of 14C 2-deoxy-D-glucose transport into A2780 cells; 20 min compound incubation; read-out: IC50. The method, boiled down:
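Radiolabelled 2-deoxy-D-glucose transport over 20 min was scintillation-counted in A2780 cells, grown 48 h, after 20 min compound exposure in KRB. Untreated cells gave the 100% reference, with Cytochalasin B defining background. IC50 values were regressed from triplicate means across 7 or 14 concentrations.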

The subject of test [2] is A2780 Human Carcinoma Cells. Briefly: Glucose displacement assay (ATP measurement, CellTiter-Glo). To be noted: ATP measurement in A2780 cells, 0.5 μM rotenone. Format: cell-based. The method, boiled down: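 Cells were glucose-starved for 2 h in 1% FCS medium, then treated with compound in KRB buffer for 20 min at 37 °C with rotenone at 0.5 μM final. Glucose (typically 0.1–10 mM) was added for 15 min at 37 °C. ATP was measured by CellTiter-Glo luminescence.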
(In general: ATP-based viability assays read luminescence as a measure of living cells.)

The target in test [3] is T1, hGLUT1 protein (Homo sapiens, UniProt P11166).
T1 construct: fused on or other part: 11-amino-acid HiBiT peptide tag (small part of nanoluciferase) inserted into the first extracellular loop of GLUT1
T1 sequence (P11166 1-492): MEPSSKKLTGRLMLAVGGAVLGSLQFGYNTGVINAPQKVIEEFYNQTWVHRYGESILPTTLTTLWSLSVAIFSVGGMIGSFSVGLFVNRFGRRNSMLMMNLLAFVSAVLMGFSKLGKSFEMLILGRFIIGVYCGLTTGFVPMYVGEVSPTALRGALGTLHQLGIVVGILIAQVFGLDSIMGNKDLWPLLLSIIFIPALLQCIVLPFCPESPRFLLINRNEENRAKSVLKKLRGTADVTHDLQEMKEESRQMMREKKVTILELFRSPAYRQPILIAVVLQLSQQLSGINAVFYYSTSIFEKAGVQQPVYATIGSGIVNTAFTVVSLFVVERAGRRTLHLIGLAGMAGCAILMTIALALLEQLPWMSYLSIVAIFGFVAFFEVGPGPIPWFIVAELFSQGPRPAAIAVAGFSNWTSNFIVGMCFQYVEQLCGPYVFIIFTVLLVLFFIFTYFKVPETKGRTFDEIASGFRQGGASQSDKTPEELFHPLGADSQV
Briefly: NanoBRET-based GLUT1-binding assay in HEK cells. To be noted: displacement of Bayer+NB618 (75 nM) from HiBit-tagged GLUT1 HEK cells; mean of measurements done twice in duplo; read-out: IC50. Here is the method:
3. NanoBRET-Based GLUT1-Binding Assays in HEK Cells
To measure binding of compounds to the hGLUT1 protein, the newly-developed NanoBRET platform from Promega is used. In this technology binding is measured via Foerster Resonance Energy Transfer. Foerster Resonance Energy Transfer is based on a direct, radiation-free energy transfer from donor to acceptor and can only take place when donor and acceptor are within nm distance. As donor energy the bioluminescence light of nanoluciferase is used, therefore this application is referred to as BRET (Bioluminescence Resonance Energy Transfer). Nanoluciferase is a protein that emits light when the appropriate substrate is available.
Nanoluciferase is attached to GLUT1 via protein complementation using the HiBit protein tagging system (Promega). […] The HiBit peptide tag is used as a landing pad for the so called Large Bit protein that is commercially available from Promega and added to the medium. Large Bit has a high affinity for HiBit tag resulting in protein complementation to a fully-functional nanoluciferase, which is used as energy donor in the NanoBRET assay system.
To obtain a HEK cell line expressing HiBit-tagged GLUT1, cells were transfected with the appropriate construct placed behind the tetracycline-inducible promoter (Flipin T-Rex system from Thermo Fisher, K650001) and a cell line was generated.
As NanoBRET acceptor a GLUT1 inhibitor described by Siebeneicher et al. (Siebeneicher H., Bauser M., Buchmann B., et al. Identification of novel GLUT inhibitors. Bioorganic & Medicinal Chemistry Letters 2016; 26(7):1732-7; compound 53) was reduced to the aminobenzyl derivative and coupled to the fluorophore NanoBRET618 (Promega) and is referred to as “Bayer+NB618”.
For the assay 50 μl with 7500 cells (HiBit-tagged GLUT1 HEK cells) are plated into 384 poly-D-lysine-coated black μClear plates (Greiner) in DMEM (Gibco 61966) medium supplemented with 10% tetracycline-free FCS (PAN P30-3602) and 300 ng/ml doxycycline (Sigma 9891) to induce the induction of the HiBit-tagged GLUT1 protein.
Incubation of Compound and Acceptor Molecule
After getting adherent by overnight incubation at 37° C. and 10% CO2, the medium is replaced by 10 μl imaging medium (1% BSA (Sigma A9576), 5 mM Hepes (Gibco 15630), 0.35 mM Na-bicarbonate (Gibco 11360-039), 1 mM Na-Pyruvate (Gibco 11360) in PBS buffer (Gibco14040)). 5 μl Bayer+NB618 (in imaging medium, final concentration 75 nM) is added and the plates are incubated for 15 minutes statically at room temperature.
A serial dilution of the test compounds is prepared in imaging medium and added in 10 μl to the respective wells. As a positive control for displacement values from wells incubated with 200 mM D-Glucose (Sigma G8769) are used. Plates are incubated for 30 minutes at room temperature without shaking.
Generating Luminescence and Measuring Fluorescence
This detection solution is made in the buffer provided. After addition of the detection reagent, the samples are incubated for 30 minutes without shaking and subsequently the luminescence and fluorescence emissions are measured simultaneously on the PHERAstar FSX (BMG Labtech) using the appropriate dual filter setup. This filter setup is made up of a 450-80 nm band pass filter to measure the donor signal peaking at 460 nm and a long pass filter starting at 610 nm to measure the fluorescence emission of NanoBRET 618, which peaks at 621 nm and continues beyond 700 nm.
From the raw luminescence and fluorescence values, the NanoBRET ratios are calculated, being the ratio of the fluorescence signal divided by the luminescence signal. Mean values are obtained from at least duplicates.
For percentage inhibition results, the mean value of the not-compound-treated cells is set as 0%. The mean BRET value of the cells treated with 200 mM glucose is used for maximal inhibition. All other mean values were calculated to this relation. […]
Background: BRET reads energy transfer from a luciferase to a nearby fluorophore.

The mark [4] stands for this setting: 1 mM glucose, read-out: IC50 [μM] at 1 mM glucose.
The mark [5] stands for this setting: 10 mM glucose, read-out: IC50 [μM] at 10 mM glucose.

Read-outs that look alike come from different tables or passages of the source.

By IC50 is commonly meant the concentration needed to halve the response being measured. As to `C#CCCCn1c(COc2c(Cl)cc(C(=O)O[C@H]3[C@@H](OC)O[C@H](CO)[C@@H](O)[C@@H]3O)c(C)c2Cl)nc2ccccc21` [Example 212], the 50% inhibitory concentration (IC50) in test [1] was 100 nM; in test [2] (setting [4]), less than 0.12 µM; in test [2] (setting [5]) it was 0.288 µM; in test [3] it was 240 nM.

`COC(=O)[C@H](CCC(=O)NCc1cccc(COc2c(Cl)cc(C(=O)O[C@H]3[C@@H](OC)O[C@H](CO)[C@@H](O)[C@@H]3O)c(C)c2Cl)c1)NC(=O)OC(C)(C)C` [Example 306]: the IC50 in test [1] was 3000 nM; in test [2] (setting [4]) it was 1.86 µM; in test [2] (setting [5]), 7.95 µM; in test [3], 190 nM.

On to `C#CCCCCCn1c(COc2c(Cl)cc(C(=O)O[C@H]3[C@@H](OC)O[C@H](CO)[C@@H](O)[C@@H]3O)c(C)c2Cl)nc2ccccc21` [Example 320], for which the IC50 in test [1] was determined as 20 nM; in test [2] (setting [4]) it was 0.51 µM; in test [2] (setting [5]) it was 1.13 µM; in test [3], 220 nM.

With `C#CCCCn1c(COc2cc(OC)c(C(=O)N[C@H]3[C@@H](OC)O[C@H](CO)[C@@H](O)[C@@H]3O)cc2Cl)nc2ccccc21` [Example 328], the concentration for half-maximal inhibition (IC50) in test [1] is 1600 nM; in test [2] (setting [4]) it was 0.56 µM; in test [2] (setting [5]), greater than 33 µM; in test [3], 13600 nM.

Consider `COc1cc(OCc2ccc3c(c2)nnn3C)c(Cl)cc1C(=O)O[C@H]1[C@@H](OC)O[C@H](CO)[C@@H](O)[C@@H]1O` [Example 340], for which the 50% inhibitory concentration (IC50) in test [1] was 400 nM; in test [2] (setting [4]), 0.35 µM; in test [2] (setting [5]), 4.55 µM; in test [3], 9490 nM.

In the case of `C#CCCCn1c(COc2cc(OC)c(C(=O)O[C@@H]3[C@@H](O)[C@@H](OC)O[C@H](CO)[C@H]3O)cc2Cl)nc2ccccc21` [Example 367], the IC50 was 3900 nM in test [1] and greater than 30000 nM in test [3].

For the compound `COC(=O)/C=C/c1ccc(COc2cc(OC)c(C(=O)N[C@H]3[C@@H](OC)O[C@H](CO)[C@@H](O)[C@@H]3O)cc2Cl)cc1` [Example 370], the values for the IC50 in test [1] and in test [3] were 400 nM and 6980 nM, respectively.

As to `COc1cc(OCc2cccc(OCCCC(=O)OC(C)(C)C)c2)c(Cl)cc1C(=O)N[C@H]1[C@@H](OC)O[C@H](CO)[C@@H](O)[C@@H]1O` [Example 393], the concentration for half-maximal inhibition (IC50) came to 900 nM in test [1] and 17200 nM in test [3].

As to `COc1cc(OCc2cccc(NC(=O)OC(C)(C)C)c2)c(Cl)cc1C(=O)N[C@H]1[C@H](OC)O[C@H](CO)[C@@H](O)[C@@H]1O` [Example 415], the IC50 in test [1] stood at 700 nM; in test [2] (setting [4]) it was 3.07 µM; in test [2] (setting [5]) it was 9.21 µM; in test [3], 8300 nM.

On to `COC(=O)c1ccn2cc(COc3cc(OC)c(C(=O)N[C@H]4[C@@H](OC)O[C@H](CO)[C@@H](O)[C@@H]4O)cc3Cl)nc2c1` [Example 416], for which the 50% inhibitory concentration (IC50) in test [2] (setting [4]) was 1.64 µM; in test [2] (setting [5]), 22.4 µM; in test [3], 9770 nM.

These data come from patent US20210170033A1, “NOVEL CONJUGATES OF A PHARMACEUTICAL AGENT AND A MOIETY CAPABLE OF BINDING TO A GLUCOSE SENSING PROTEIN” (SANOFI, priority 2017, published 2021).
